Experiments:
Format in all cases: cell-based
SXF 1186 = test: Clonogenic assay, SXF 1186; details: Homo sapiens, Sarcoma, Osteoblastic osteosarcoma, soft agar, read-out: IC50 (colony formation)
Procedure: (§1) The anticancer activity of (R)-2-amino-7-[2-(6-methoxy-pyridin-2-yl)-phenyl]-4-methyl-7,8-dihydro-6H-pyrido[4,3-d]pyrimidin-5-one is evaluated in 30 human tumor xenografts in vitro using a clonogenic assay. In this assay, human cells derived from cancer patients are evaluated for the capacity of (R)-2-amino-7-[2-(6-methoxy-pyridin-2-yl)-phenyl]-4-methyl-7,8-dihydro-6H-pyrido[4,3-d]pyrimidin-5-one to inhibit the formation of 3 dimensional colonies. […] The tumor xenografts which have never been cultured in cell culture plastic dishes are isolated from nude mice. Tumor cell suspensions are prepared and incubated in 24 well plates containing layers of soft agar. Under these conditions a special subpopulation of cells selectively grows to colonies. (R)-2-amino-7-[2-(6-methoxy-pyridin-2-yl)-phenyl]-4-methyl-7,8-dihydro-6H-pyrido[4,3-d]pyrimidin-5one is tested in 6 concentrations up to 1000 nM. The tumor test panel comprises 1 to 10 models of 12 different human tumor types, which were bladder cancer, colon, gastric, non small cell lung (adeno, squamous cell, and large cell), small cell lung, mammary, ovary, and prostate cancer, as well as leukemia, lymphoma, melanoma, and sarcoma. Antitumor effects are recorded as inhibition of colony formation in relation to untreated controls. […]

GXF 1172 = test: Clonogenic assay, GXF 1172; details: Homo sapiens, Stomach, Signet-ring cell carcinoma, soft agar, read-out: IC50 (colony formation)
Procedure: as §1

BXF 1218 = test: Clonogenic assay, BXF 1218; details: Homo sapiens, Bladder, Transitional cell carcinoma, soft agar, read-out: IC50 (colony formation)
Procedure: as §1

BXF 1258 = test: Clonogenic assay, BXF 1258; details: Homo sapiens, Bladder, Transitional cell carcinoma, soft agar, read-out: IC50 (colony formation)
Procedure: as §1

KMS-11 = test: Cell proliferation assay, KMS-11 (multiple myeloma); details: Homo sapiens, 72 hours in presence of compound
Procedure: (§2) Seventeen cancer derived cell lines are used (GTL-16, N87, H1975, A549, H69, A2780, PC3, BT474, SKBR3, MCF-7, A375, MV4;11, K562, KM12L4A, H929, OPM-2 and KMS-11) to test the effect of (R)-2-amino-7-[2-(6-methoxy-pyridin-2-yl)-phenyl]-4-methyl-7,8-dihydro-6H-pyrido[4,3-d]pyrimidin-5-one. These cell lines cover the following 9 tumor types: Gastric, Lung, Ovarian, Prostate, Breast, Melanoma, Leukemia, Colon and Multiple myeloma. After division and medium change, cells from stock culture are seeded on cell plates and cultured for about 18 hours to allow cell growth and attachment before starting the assay. Then on the first day of the assay, (R)-2-amino-7-[2-(6-methoxy-pyridin-2-yl)-phenyl]-4-methyl-7,8-dihydro-6H-pyrido[4,3-d]pyrimidin-5-one is added to the medium at various concentrations. Cells are cultured up to 72 or 96 hours and cell proliferation is determined using commercially available cell proliferation kits.
(§3) Table 1 relates to the concentration in nM of (R)-2-amino-7-[2-(6-methoxy-pyridin-2-yl)-phenyl]-4-methyl-7,8-dihydro-6H-pyrido[4,3-d]pyrimidin-5-one which inhibits cell proliferation by 50% (IC50). […]

KM12L4A = test: Cell proliferation assay, KM12L4A (colon); details: 72 hours in presence of compound
Procedure: as §2, §3

H929 = test: Cell proliferation assay, H929 (multiple myeloma); details: Homo sapiens, NCI-H929, 72 hours in presence of compound
Procedure: as §2, §3

LXFA 737 = test: Clonogenic assay, LXFA 737; details: Homo sapiens, Lung, non-small cell, Adenocarcinoma, soft agar, read-out: IC50 (colony formation)
Procedure: as §1

K562 = test: Cell proliferation assay, K562 (leukemia); details: Homo sapiens, 72 hours in presence of compound
Procedure: as §2, §3

PRXF MRIH1579 = test: Clonogenic assay, PRXF MRIH1579; details: Homo sapiens, Prostate, Adenocarcinoma, soft agar, read-out: IC50 (colony formation)
Procedure: as §1

PRXF 22RV1 = test: Clonogenic assay, PRXF 22RV1; details: Homo sapiens, Prostate carcinoma, soft agar, read-out: IC50 (colony formation)
Procedure: as §1

CXF 1729 = test: Clonogenic assay, CXF 1729; details: Homo sapiens, Colon, Papillary adenocarcinoma, soft agar, read-out: IC50 (colony formation)
Procedure: as §1

MAXF 574 = test: Clonogenic assay, MAXF 574; details: Homo sapiens, Breast, Carcinoma, soft agar, read-out: IC50 (colony formation)
Procedure: as §1

LEXF K562 = test: Clonogenic assay, LEXF K562; details: Homo sapiens, Chronic myelogenous leukemia, soft agar, read-out: IC50 (colony formation)
Procedure: as §1

MAXF 583 = test: Clonogenic assay, MAXF 583; details: Homo sapiens, Breast, Ductual adenocarcinoma, soft agar, read-out: IC50 (colony formation)
Procedure: as §1

H69 = test: Cell proliferation assay, H69 (lung); details: Homo sapiens, NCI-H69, 72 hours in presence of compound
Procedure: as §2, §3

LXFA 629 = test: Clonogenic assay, LXFA 629; details: Homo sapiens, Lung, non-small cell, Adenocarcinoma, soft agar, read-out: IC50 (colony formation)
Procedure: as §1

SXF 1410 = test: Clonogenic assay, SXF 1410; details: Homo sapiens, Sarcoma, Fibroblastic osteosarcoma, soft agar, read-out: IC50 (colony formation)
Procedure: as §1

OVXF 1353 = test: Clonogenic assay, OVXF 1353; details: Homo sapiens, Ovary, Adenocarcinoma, soft agar, read-out: IC50 (colony formation)
Procedure: as §1

LYXF U937 = test: Clonogenic assay, LYXF U937; details: Homo sapiens, U-937, Histiocytic lymphoma, soft agar, read-out: IC50 (colony formation)
Procedure: as §1

IC50 (SXF 1186): 21 nM | IC50 (GXF 1172): 43 nM | IC50 (BXF 1218): 26 nM | IC50 (BXF 1258): 316 nM | GI50 (KMS-11): 7 nM | GI50 (H929): 20 nM | IC50 (LXFA 737): 26 nM | GI50 (K562): 24 nM | IC50 (PRXF MRIH1579): > 1000 nM | IC50 (PRXF 22RV1): 23 nM | IC50 (CXF 1729): 199 nM | IC50 (MAXF 574): 316 nM | IC50 (LEXF K562): 13 nM | IC50 (MAXF 583): 24 nM | IC50 (LXFA 629): 27 nM | IC50 (OVXF 1353): 53 nM | IC50 (LYXF U937): 28 nM
Compound: COc1cccc(-c2ccccc2[C@H]2Cc3nc(N)nc(C)c3C(=O)N2)n1 [(R)-2-amino-7-[2-(6-methoxy-pyridin-2-yl)-phenyl]-4-methyl-7,8-dihydro-6H-pyrido[4,3-d]pyrimidin-5-one]
GI50 (KM12L4A): 11 nM | GI50 (H69): 37 nM | IC50 (SXF 1410): > 1000 nM
